Read-outs that look alike come from different tables or passages of the source.
Target: T1, hen egg white lysozyme (HEWL) (Gallus gallus, UniProt P00698)
T1 construct: gene LYZ
Experiment: SPR (HEWL amine-coupled on CMD gold chip, […]°C); intrinsic fluorescence quenching
Type: binding

T1 sequence (P00698 19-147): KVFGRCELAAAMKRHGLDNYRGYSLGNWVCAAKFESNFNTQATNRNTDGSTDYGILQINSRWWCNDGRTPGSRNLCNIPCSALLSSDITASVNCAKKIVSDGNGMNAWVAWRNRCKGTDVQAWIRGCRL

Kd (read-out: Kd)	SMILES	Kd
–	O=c1ccc2cc3ccoc3cc2o1 [psoralen]	9.32 µM
46.8 µM	CC1(C)C=Cc2c(ccc3ccc(=O)oc23)O1 [seselin]	–
